From PubChem BioAssay AID489006 (Sanford-Burnham Center for Chemical Genomics, 2010)
Activity calls are given as the source filed them. No rule for the calls is given here.

System: Jurkat NF-kB reporter, luminescence
Test: NF-kB reporter inhibition in Jurkat cells, dose response, selectivity assay for B-cell receptor NF-kB inhibitor project, cell-based, luminescence (AID 489006)

SMILES	IC50
CCOC(=O)N1CCN(CC(=O)Nc2ccc([N+](=O)[O-])cc2C(=O)Nc2ccccc2F)CC1	33.1 µM (inactive)
CNC(=O)c1cc(Nc2nnc(-c3ccc(O)cc3)c3ccccc23)ccc1OC	> 80 µM (inactive)
Cc1ccc(NC(=O)C2CCC(CNc3c(N4CCC(C)CC4)c(=O)c3=O)CC2)cc1F (configuration not stated)	> 80 µM (inactive)
COc1cc(Br)c(C(=O)c2nccc3cc(OC)c(OC)cc23)cc1OC	> 80 µM (inactive)
COC(=O)c1c(NC(=O)c2cccc([N+](=O)[O-])c2)sc(C(N)=O)c1C	> 80 µM (inactive)
COc1cccc(N2CCN(c3ncnc4c3[nH]c3ccc(F)cc34)CC2C)c1 (configuration not stated)	1.31 µM
Cc1ccc(-c2nn3c(C)nnc3c3ccccc23)cc1S(=O)(=O)NCc1ccco1	46.7 µM (inactive)
